Tested on: Plasmodium berghei
Assay: Luciferase/luciferin-expressing antifolate-resistant parasites were used to infect a culture of HepG2 cells that were pre-incubated with compounds. Infected hepatocytes emit light due to the luciferase reaction. Assay results are presented as the percent inhibition of light emission compared to control. […]
Format: functional
Conditions: sporozoite; for IC90: read-out: LUCIFERASE INFECTION ASSAY - IC90
[1] = read-out: LUCIFERASE INFECTION ASSAY - IC50

| Structure (SMILES) | IC90 | also measured |
| --- | --- | --- |
| CCN(CC)S(=O)(=O)c1ccc(O)c(NC(=O)c2ccc(SC(F)(F)F)cc2)c1 | > 10 µM | IC50 [1]: > 10 µM |
| Cc1cc(C(=O)N2CCc3sccc3C2)c2c(C)noc2n1 | > 10 µM | IC50 (PBLUC_HILL_SLOPE 3.72, PBLUC_R_SQUARED 0.0188, read-out: LUCIFERASE INFECTION ASSAY - IC50): > 10 µM |
| Cc1ccc(-c2cc(=O)n(-c3ccc(F)cc3)[nH]2)cc1 | 11.6 µM | IC50 (HEPG2TOX_HILL_SLOPE 8.74, HEPG2TOX_R_SQUARED 0.98, PBLUC_HILL_SLOPE 2.08, PBLUC_R_SQUARED 0.732, read-out: LUCIFERASE INFECTION ASSAY - IC50): 4.04 µM |
| N#Cc1c(CCCNC(=O)/C=C/c2ccc(Cl)c(C(F)(F)F)c2)nn(-c2ccc(F)cc2)c1N | > 10 µM | IC50 [1]: > 10 µM |
| O=C(Nc1ccc(F)cc1)C(Sc1nnc(-c2cccs2)[nH]1)c1ccccc1 (stereo not drawn) | > 10 µM | IC50 (PBLUC_HILL_SLOPE 4.17, PBLUC_R_SQUARED 0.509, read-out: LUCIFERASE INFECTION ASSAY - IC50): 6.11 µM |
| COc1cc(-c2cn3c(-c4ccc5ncccc5c4)cnc3cn2)cc(OC)c1OC | 7.92 µM | IC50 (HEPG2TOX_HILL_SLOPE 2.69, HEPG2TOX_R_SQUARED 0.906, PBLUC_HILL_SLOPE 2.74, PBLUC_R_SQUARED 0.535, read-out: LUCIFERASE INFECTION ASSAY - IC50): 3.55 µM |
| OC1CCN(c2ccnc3c(-c4ccc5ccccc5c4)cnn23)CC1 | 0.96 µM | IC50 (PBLUC_HILL_SLOPE 1.1, PBLUC_R_SQUARED 0.73, read-out: LUCIFERASE INFECTION ASSAY - IC50): 0.129 µM |
| O=C(NC1CCS(=O)(=O)c2ccccc21)C1CCN(c2ncc(C(F)(F)F)cc2Cl)CC1 (stereo not drawn) | > 10 µM | IC50 [1]: > 10 µM |
| COc1ccc(N2CCN(CCCNS(=O)(=O)c3ccc(Cl)cc3C(F)(F)F)CC2)cc1 | > 10 µM | IC50 (PBLUC_HILL_SLOPE 0.0792, 17.3, PBLUC_R_SQUARED 0.0344, 0.317, read-out: LUCIFERASE INFECTION ASSAY - IC50): 9.67 µM |
| CSc1ncc(Nc2nc(-c3ccccc3)c(-c3ccccc3)s2)cn1 | 4.18 µM | IC50 (PBLUC_HILL_SLOPE 14.9, PBLUC_R_SQUARED 0.41, read-out: LUCIFERASE INFECTION ASSAY - IC50): 3.61 µM |
| CN1CCN(c2ccc(-c3cn4c(-c5ccccc5Cl)cnc4cn3)cn2)CC1 | > 8.15 µM | IC50 (PBLUC_HILL_SLOPE 0.491, PBLUC_R_SQUARED 0.57, read-out: LUCIFERASE INFECTION ASSAY - IC50): 3.67 µM |
| CN(C)c1ccc(-c2cnc3ccc(NCc4ccc5c(c4)OCO5)nn23)cc1 | 3.57 µM | IC50 (HEPG2TOX_HILL_SLOPE 1.81, HEPG2TOX_R_SQUARED 0.969, PBLUC_HILL_SLOPE 2.01, PBLUC_R_SQUARED 0.65, read-out: LUCIFERASE INFECTION ASSAY - IC50): 1.2 µM |
| Cc1ccc(Nc2cc(C)nc3c(-c4ccccc4)cnn23)cc1 | > 10.5 µM | IC50 (FFLUC_HILL_SLOPE 0.324, FFLUC_R_SQUARED 0.749, HEPG2TOX_HILL_SLOPE 3.12, HEPG2TOX_R_SQUARED 0.973, read-out: LUCIFERASE INFECTION ASSAY - IC50): > 10.5 µM |
| O=C(CCc1ccco1)Nc1ccc(-n2nccn2)cc1 | > 10 µM | IC50 (HEPG2TOX_HILL_SLOPE 10.3, HEPG2TOX_R_SQUARED 0.943, PBLUC_HILL_SLOPE 1.03, PBLUC_R_SQUARED 0.655, read-out: LUCIFERASE INFECTION ASSAY - IC50): 4.85 µM |
| O=C1/C(=C2/NC=C(c3ccc(Cl)cc3)O2)Sc2ccccc21 | > 10 µM | IC50 (HEPG2TOX_HILL_SLOPE 0.513, HEPG2TOX_R_SQUARED 0.665, PBLUC_HILL_SLOPE 15.6, PBLUC_R_SQUARED 0.39, read-out: LUCIFERASE INFECTION ASSAY - IC50): 9.58 µM |
| Cc1cc(NCc2ccccn2)n2nc(C)c(-c3ccccc3Cl)c2n1 | 5.5 µM | IC50 (HEPG2TOX_HILL_SLOPE 4.48, HEPG2TOX_R_SQUARED 0.152, PBLUC_HILL_SLOPE 2.08, PBLUC_R_SQUARED 0.431, read-out: LUCIFERASE INFECTION ASSAY - IC50): 1.91 µM |
| O=C(CNc1ccc(Oc2ccc(Br)cc2)cc1)NC1CC1 | > 10 µM | IC50 [1]: > 10 µM |
| COc1ccc(NS(=O)(=O)c2cccc(C(=O)N/N=C(\c3ccccc3)c3ccccn3)c2)cc1 | 6.62 µM | IC50 (FFLUC_HILL_SLOPE 6.58, FFLUC_R_SQUARED 0.0766, HEPG2TOX_HILL_SLOPE 0.953, HEPG2TOX_R_SQUARED 0.956, PBLUC_HILL_SLOPE 1.34, PBLUC_R_SQUARED 0.562, read-out: LUCIFERASE INFECTION ASSAY - IC50): 1.29 µM |
| O=C(Nc1cc(C(F)(F)F)ccc1N1CCOCC1)c1ccc(SCc2cscn2)cc1 | > 10 µM | IC50 (PBLUC_HILL_SLOPE 11.6, PBLUC_R_SQUARED 0.493, read-out: LUCIFERASE INFECTION ASSAY - IC50): 8.97 µM |
| NC(=O)NC(CC(=O)OCC(=O)Nc1ccccc1-c1ccccc1)c1ccc(Cl)cc1 (stereo not drawn) | > 10 µM | IC50 (PBLUC_HILL_SLOPE 5.92, PBLUC_R_SQUARED 0.131, read-out: LUCIFERASE INFECTION ASSAY - IC50): > 10 µM |

| Structure (SMILES) | IC90 | also measured |
| --- | --- | --- |
| CNc1snc(C)c1C(=O)N(C)Cc1ccccc1OC(F)(F)F | 0.463 µM | IC50 (PBLUC_HILL_SLOPE 12.1, PBLUC_R_SQUARED 0.631, read-out: LUCIFERASE INFECTION ASSAY - IC50): 0.386 µM |
| CN(C)c1ccc(C(c2cc(C(C)(C)C)c(O)c(C(C)(C)C)c2)N2CCCCC2)cc1 (stereo not drawn) | > 10 µM | IC50 [1]: > 10 µM |
| O=C1C=CC(=O)N1c1cccc(Cl)c1Cl | > 13.6 µM | IC50 (FFLUC_HILL_SLOPE 90.3, FFLUC_R_SQUARED 0.368, read-out: LUCIFERASE INFECTION ASSAY - IC50): > 13.6 µM |
| CN(C)CCNC(=O)c1ccc(-c2cn3c(-c4ccc5ncccc5c4)cnc3cn2)cc1 | > 7.56 µM | IC50 (HEPG2TOX_HILL_SLOPE 1.62, HEPG2TOX_R_SQUARED 0.706, PBLUC_HILL_SLOPE 13, PBLUC_R_SQUARED 0.311, read-out: LUCIFERASE INFECTION ASSAY - IC50): 6.52 µM |
| Cc1c(S(=O)(=O)c2ccc(Cl)cc2)csc1C(=O)N(c1ccccc1)[S+](C)[O-] (stereo not drawn) | 2.72 µM | IC50 (PBLUC_HILL_SLOPE 18.3, PBLUC_R_SQUARED 0.735, read-out: LUCIFERASE INFECTION ASSAY - IC50): 2.41 µM |
| COc1ccc(-c2csc3ncnc(NCc4ccc(-n5ccnc5)nc4)c23)cc1 | 10 µM | IC50 (HEPG2TOX_HILL_SLOPE 2.62, HEPG2TOX_R_SQUARED 0.957, PBLUC_HILL_SLOPE 10.9, PBLUC_R_SQUARED 0.671, read-out: LUCIFERASE INFECTION ASSAY - IC50): 8.17 µM |
| COc1ccc(C(=O)Nc2cccc(/C=C3\S/C(=N\C4CCCC4)NC3=O)c2)cc1 | > 10 µM | IC50 (HEPG2TOX_HILL_SLOPE 1.03, HEPG2TOX_R_SQUARED 0.894, PBLUC_HILL_SLOPE 3.32, PBLUC_R_SQUARED 0.257, read-out: LUCIFERASE INFECTION ASSAY - IC50): 5.96 µM |
| CCn1c2ccccc2c2cc(NC(=O)COC(=O)CC3CCCC3)ccc21 | 9.1 µM | IC50 (PBLUC_HILL_SLOPE 3.89, PBLUC_R_SQUARED 0.506, read-out: LUCIFERASE INFECTION ASSAY - IC50): 5.17 µM |
| COc1ccc(-c2csc3ncnc(NCCCCCc4n[nH]c(N)c4C#N)c23)cc1 | 3.53 µM | IC50 (HEPG2TOX_HILL_SLOPE 1.47, HEPG2TOX_R_SQUARED 0.942, PBLUC_HILL_SLOPE 36.2, PBLUC_R_SQUARED 0.623, read-out: LUCIFERASE INFECTION ASSAY - IC50): 3.33 µM |
| N#CC(C#N)C=Nc1cc(C(F)(F)F)ccc1N1CCCC1 | > 10.8 µM | IC50 [1]: > 10.8 µM |
| CO/N=C1\CCCc2c(C(=O)N/N=C/c3ccc(Cl)cc3)sc(SC)c21 | 1.51 µM | IC50 (HEPG2TOX_HILL_SLOPE 0.585, HEPG2TOX_R_SQUARED 0.788, PBLUC_HILL_SLOPE 2.34, PBLUC_R_SQUARED 0.687, read-out: LUCIFERASE INFECTION ASSAY - IC50): 0.59 µM |
| O=C1C(=C2NC=C(c3ccc(Cl)cc3)O2)Sc2ncccc21 | 1.69 µM | IC50 (HEPG2TOX_HILL_SLOPE 1.16, HEPG2TOX_R_SQUARED 0.581, PBLUC_HILL_SLOPE 117, PBLUC_R_SQUARED 0.316, read-out: LUCIFERASE INFECTION ASSAY - IC50): 1.66 µM |
| Cc1ccc(NC(=O)CN2CCN(Cc3c(O)ccc4ccncc34)CC2)cc1 | > 10 µM | IC50 [1]: > 10 µM |
| CCSc1ccccc1C(=O)Nc1ccc(C(=O)OC)cc1 | > 10.5 µM | IC50 [1]: > 10.5 µM |
| CN(C)c1c(F)cc(C(=O)Nc2cc(C(F)(F)F)cc(C(F)(F)F)c2)cc1F | > 8 µM | IC50 (HEPG2TOX_HILL_SLOPE 10.3, HEPG2TOX_R_SQUARED 0.772, PBLUC_HILL_SLOPE 1.36, PBLUC_R_SQUARED 0.505, read-out: LUCIFERASE INFECTION ASSAY - IC50): > 8 µM |
| CCn1c2ccccc2c2cc(NC(=O)COC(=O)CCNS(=O)(=O)c3cccc(C)c3)ccc21 | > 10 µM | IC50 (FFLUC_HILL_SLOPE 22.4, FFLUC_R_SQUARED 0.497, HEPG2TOX_HILL_SLOPE 9.12, HEPG2TOX_R_SQUARED 0.733, read-out: LUCIFERASE INFECTION ASSAY - IC50): > 10 µM |
| CC1CC1c1ccc(/C=C/C(=O)NNC(=S)NCC2CCCO2)o1 (stereo not drawn) | 3.79 µM | IC50 (HEPG2TOX_HILL_SLOPE 2.34, HEPG2TOX_R_SQUARED 0.989, PBLUC_HILL_SLOPE 14.4, PBLUC_R_SQUARED 0.432, read-out: LUCIFERASE INFECTION ASSAY - IC50): 3.25 µM |
| CC(C)Cc1ccc(C(=O)CC(Sc2ccccc2N)c2ccc(C(F)(F)F)cc2)cc1 (stereo not drawn) | 0.452 µM | IC50 (FFLUC_HILL_SLOPE 10.1, FFLUC_R_SQUARED 0.429, PBLUC_HILL_SLOPE 1.99, PBLUC_R_SQUARED 0.752, read-out: LUCIFERASE INFECTION ASSAY - IC50): 0.15 µM |
| O=S(=O)(Nc1ccc(S(=O)(=O)NC2CC2)cc1)c1cc(F)cc(F)c1 | > 10 µM | IC50 [1]: > 10 µM |
